Key:
hAC1 = molecular target: T1, hAC1 (Homo sapiens, UniProt Q08828); test: Cyclic AMP accumulation in HEK cells stably expressing AC1, stimulated with A23187 (HTRF); assay type: cell-based; conditions: HEK-AC1 cells; for inhibition at 30 µM: HEK293; for IC50: read-out: HEK-AC1 IC50
T1 construct: expressed in transfected cells
Method: The development and mechanistic characterization of AC1-selective small molecule inhibitors is believed to provide novel non-opioid weapons in the war on chronic pain. We identified our initial hits via screening 10,000 selected compounds from the Life Chemicals collection. The screen was carried out using HEK cells stably expressing AC1 (HEK-AC1) and cyclic AMP accumulation was stimulated using the Ca^2+ ionophore, A23187 to selectively activate AC1. Compounds with potential chemical liabilities and PAINs were removed from further evaluation (Baell and Holloway, J. Med. Chem. 2010, 53, 2719-2740).
(§1) Fresh powders of several robust inhibitors (>90% inhibition) were evaluated in multiple confirmation assays assessing the dose response relationship for inhibiting AC1 and AC8 activity. Confirmation assays used A23817 to selectively stimulate recombinant AC1 or AC8 in the HEK cell background (Cumbay and Watts (2001), J. Pharmacol Exp Ther 297:1201-1399). This approach takes advantage of one unique regulatory property of AC1 for the development of selective inhibitors. Both AC1 and AC8 are robustly activated by Ca^2+/CaM under a variety of conditions, whereas the effects of Ca^2+/CaM on AC3 are modest and conditional requiring activation by G proteins. Previous studies have identified unique Ca^2+/CaM binding domains as one possible site of interaction to achieve AC1 (vs. AC8) selectivity (Masada et al., 2012, Biochemistry 51:7917-7929).
(§2) The primary technology we employed to measure cAMP accumulation was a homogenous time-resolved fluorescence (HTRF) assay, the same technology utilized in the primary screen. […] This could be due to either 1) the chemical scaffolds are exquisitely selective toward the AC family of enzymes or 2) the library has not been screened against a sufficient number of targets. The answer is likely a combination of the two; nonetheless, the lack of biological data to date bodes well for these series and any potential off-target promiscuity.
(§3) Human embryonic kidney (HEK) cells stably expressing AC1, AC8, or AC1 with the MOR were cultured in Dulbecco's Modified Eagle Medium (Life Technologies, Grand Island, N.Y.) supplemented with 5% bovine calf serum (Hyclone, Logan, Utah), 5% fetal clone I (Hyclone), Antibiotic-Antimycotic (Life Technologies), and G418 (Invivogen, San Diego, Calif.) (HEK-AC1), or hygromycin B (Fisher Scientific, Pittsburgh, Pa.) (HEK-AC8), or G418 and puromycin (Sigma-Aldrich) (HEK-AC1/MOR). Chinese hamster ovary (CHO) cells expressing the MOR (CHO-MOR) in the PathHunter® β-Arrestin GPCR assay platform were purchased from DiscoveRx (Freemont, Calif.). Cells were grown in Ham's F12 media supplemented with 1 mM L-glutamine (Thermo Scientific, West Palm Beach, Fla.), 10% fetal bovine serum (Hyclone), 50 U/ml penicillin, 50 μg/ml streptomycin (Life Technologies), G418 and hygromycin B. Cells were grown and frozen as previously described (J. M. Conley, et al., J Vis Exp, e51218 (2014)).
(§4) Cyclic AMP accumulation was measured as previously described (Brust, et al., J. Pharmacol. Exp. Ther. 352, 480-493(2015)). Briefly, cryopreserved cells were thawed, resuspended in optiMEM (Life Technologies), and plated in white, flat bottom, low-volume, tissue culture-treated 384 well plates (PerkinElmer, Shelton, Conn.). Plates with cells were incubated in a 37° C. humidified incubator for 1 h. Inhibitors were added and plates were incubated at room temperature for 30 min followed by the addition of AC stimulants in the presence of 500 μM IBMX. Cells were incubated at room temperature for 1 h and cAMP accumulation was measured using Cisbio's cAMP kit (Cisbio Bioassays, Bedford, Mass.) according to the manufacturer's instructions.

hAC8 = molecular target: T2, hAC8 (Homo sapiens, UniProt P40145); test: Cyclic AMP accumulation in HEK cells stably expressing AC8, stimulated with A23187 (HTRF); assay type: cell-based; conditions: HEK-AC8 cells; for inhibition at 30 µM: HEK293; for IC50: read-out: HEK-AC8 IC50
T2 construct: expressed in transfected cells
T2 sequence (P40145 whole entry): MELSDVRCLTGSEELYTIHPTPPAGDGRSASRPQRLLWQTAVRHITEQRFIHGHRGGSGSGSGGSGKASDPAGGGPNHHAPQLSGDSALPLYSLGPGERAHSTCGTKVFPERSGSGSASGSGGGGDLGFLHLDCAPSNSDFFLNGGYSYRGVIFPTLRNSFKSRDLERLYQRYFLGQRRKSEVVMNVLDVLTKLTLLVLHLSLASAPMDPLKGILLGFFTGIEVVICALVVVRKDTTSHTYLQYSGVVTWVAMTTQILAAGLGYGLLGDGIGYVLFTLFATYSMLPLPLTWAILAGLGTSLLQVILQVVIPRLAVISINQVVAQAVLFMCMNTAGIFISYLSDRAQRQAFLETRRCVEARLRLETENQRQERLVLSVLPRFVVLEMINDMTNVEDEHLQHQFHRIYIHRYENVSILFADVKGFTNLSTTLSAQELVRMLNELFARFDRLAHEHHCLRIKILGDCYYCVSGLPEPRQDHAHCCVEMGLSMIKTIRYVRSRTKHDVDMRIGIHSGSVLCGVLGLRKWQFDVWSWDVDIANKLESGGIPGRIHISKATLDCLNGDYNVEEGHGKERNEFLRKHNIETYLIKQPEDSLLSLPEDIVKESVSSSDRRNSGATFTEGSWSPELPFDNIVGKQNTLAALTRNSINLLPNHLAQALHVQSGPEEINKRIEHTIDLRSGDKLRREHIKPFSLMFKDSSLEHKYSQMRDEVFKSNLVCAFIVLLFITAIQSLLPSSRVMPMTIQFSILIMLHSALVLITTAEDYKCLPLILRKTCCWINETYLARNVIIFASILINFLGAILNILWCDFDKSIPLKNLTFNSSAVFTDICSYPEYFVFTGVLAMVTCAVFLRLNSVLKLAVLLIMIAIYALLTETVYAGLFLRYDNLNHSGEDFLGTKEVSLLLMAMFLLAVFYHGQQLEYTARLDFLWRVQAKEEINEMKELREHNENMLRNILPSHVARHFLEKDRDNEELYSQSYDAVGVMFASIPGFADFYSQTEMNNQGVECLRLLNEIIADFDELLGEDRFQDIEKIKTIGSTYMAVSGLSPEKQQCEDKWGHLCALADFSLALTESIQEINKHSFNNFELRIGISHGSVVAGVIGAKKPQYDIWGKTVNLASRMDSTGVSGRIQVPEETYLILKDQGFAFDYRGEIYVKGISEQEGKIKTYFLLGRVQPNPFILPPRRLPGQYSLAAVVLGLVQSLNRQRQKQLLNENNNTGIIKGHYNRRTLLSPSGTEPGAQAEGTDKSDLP
Method: as §1, §2, §3, §4

T1 sequence (Q08828 whole entry): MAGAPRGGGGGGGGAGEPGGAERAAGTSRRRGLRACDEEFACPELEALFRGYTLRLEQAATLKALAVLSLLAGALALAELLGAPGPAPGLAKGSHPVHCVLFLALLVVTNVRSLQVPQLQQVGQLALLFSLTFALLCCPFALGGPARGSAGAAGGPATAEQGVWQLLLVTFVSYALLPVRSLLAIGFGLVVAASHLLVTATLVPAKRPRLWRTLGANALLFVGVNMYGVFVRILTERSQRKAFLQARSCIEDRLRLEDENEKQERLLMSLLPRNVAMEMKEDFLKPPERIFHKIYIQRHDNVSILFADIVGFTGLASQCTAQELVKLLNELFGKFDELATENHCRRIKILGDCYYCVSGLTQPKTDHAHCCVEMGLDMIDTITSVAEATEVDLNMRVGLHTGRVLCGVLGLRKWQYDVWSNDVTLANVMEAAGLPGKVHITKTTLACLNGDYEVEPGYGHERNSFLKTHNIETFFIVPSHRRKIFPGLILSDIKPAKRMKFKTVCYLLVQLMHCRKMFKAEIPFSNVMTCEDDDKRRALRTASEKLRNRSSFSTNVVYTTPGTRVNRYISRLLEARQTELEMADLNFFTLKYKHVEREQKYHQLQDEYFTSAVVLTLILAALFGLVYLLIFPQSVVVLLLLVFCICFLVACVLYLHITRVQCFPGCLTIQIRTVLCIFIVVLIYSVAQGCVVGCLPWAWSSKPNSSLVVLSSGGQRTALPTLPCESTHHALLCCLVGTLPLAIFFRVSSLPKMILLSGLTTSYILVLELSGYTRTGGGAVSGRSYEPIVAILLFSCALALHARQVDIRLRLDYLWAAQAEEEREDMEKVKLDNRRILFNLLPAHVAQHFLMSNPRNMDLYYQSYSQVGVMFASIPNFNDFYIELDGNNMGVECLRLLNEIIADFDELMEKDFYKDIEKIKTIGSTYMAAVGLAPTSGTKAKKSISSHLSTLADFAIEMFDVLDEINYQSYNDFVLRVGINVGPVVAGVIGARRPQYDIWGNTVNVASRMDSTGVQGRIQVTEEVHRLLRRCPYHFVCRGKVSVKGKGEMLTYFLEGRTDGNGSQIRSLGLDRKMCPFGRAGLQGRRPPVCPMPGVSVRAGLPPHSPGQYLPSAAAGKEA

| SMILES | inhibition at 30 µM (hAC1) | IC50 (hAC1) | inhibition at 30 µM (hAC8) | IC50 (hAC8) |
| --- | --- | --- | --- | --- |
| Cc1ccc(C(=O)Nc2nnc(C3CCCCC3)o2)cc1 [AC10032, N-(5-cyclohexyl-1,3,4-oxadiazol-2-yl)-4-methylbenzamide] | 78 ± 4% | 15.8 ± 2 µM | 1 ± 12% | – |
| Cc1ccc(C(=O)Nc2nnc(-c3ccc4c(c3)OCCO4)o2)cc1C [AC10035, N-(5-(2,3-dihydrobenzo[b][1,4]dioxin-6-yl)-1,3,4-oxadiazol-2-yl)-3,4-dimethylbenzamide] | 100 ± 1% | 5.3 ± 0.4 µM | 61 ± 1% | 14 ± 3 µM |
| O=C(Nc1nnc(C2CCCCC2)o1)c1cccc(-c2ccccc2)c1 [AC10063, N-(5-cyclohexyl-1,3,4-oxadiazol-2-yl)-[1,1′-biphenyl]-3-carboxamide] | 99 ± 1% | 1.4 ± 0.2 µM | 92 ± 1% | 1.4 ± 0.4 µM |
| CCc1ccc(C(=O)Nc2nnc(-c3ccc4c(c3)CCCC4)o2)cc1 [AC10062, 4-ethyl-N-(5-(5,6,7,8-tetrahydronaphthalen-2-yl)-1,3,4-oxadiazol-2-yl)benzamide] | 98 ± 1% | 1.2 ± 0.2 µM | 88 ± 2% | 2 ± 0.4 µM |
| O=C(Nc1nnc(-c2ccc(F)cc2)o1)c1cccc(F)c1 [AC10046, 3-fluoro-N-(5-(4-fluorophenyl)-1,3,4-oxadiazol-2-yl)benzamide] | 81 ± 7% | 10.6 ± 3 µM | 35 ± 1% | 69 ± 11 µM |
| CC(C)Oc1ccc(C(=O)Nc2nnc(-c3ccc4c(c3)OCCO4)o2)cc1 [AC10037, N-(5-(2,3-dihydrobenzo[b][1,4]dioxin-6-yl)-1,3,4-oxadiazol-2-yl)-4-isopropoxybenzamide] | 88 ± 3% | 7.5 ± 0.7 µM | 39 ± 7% | 56 ± 23 µM |
| O=C(Nc1nnc(-c2ccc(F)cc2)o1)c1ccc(F)cc1 [AC10052, 4-fluoro-N-(5-(4-fluorophenyl)-1,3,4-oxadiazol-2-yl)benzamide] | 64 ± 1% | 17 ± 2 µM | 14 ± 3% | – |
| O=C(Nc1nnc(-c2cccs2)o1)c1ccccc1 [AC10006, N-(5-(thiophen-2-yl)-1,3,4-oxadiazol-2-yl)benzamide] | 56 ± 5% | 29 ± 3 µM | 18 ± 2% | 101 ± 3 µM |
| O=C(Nc1nnc(C2CCCCC2)o1)c1ccc(F)cc1 [AC10053, N-(5-cyclohexyl-1,3,4-oxadiazol-2-yl)-4-fluorobenzamide] | 74 ± 3% | 12.8 ± 1 µM | 7 ± 4% | – |
| COc1ccc(C(=O)Nc2nnc(-c3cccs3)o2)cc1 [AC10018, 4-methoxy-N-(5-(thiophen-2-yl)-1,3,4-oxadiazol-2-yl)benzamide] | 80 ± 5% | 15 ± 2 µM | 10 ± 7% | – |
| O=C(Nc1nnc(-c2ccc(F)cc2)o1)c1ccc(Br)cc1 [AC10008, 4-bromo-N-(5-(4-fluorophenyl)-1,3,4-oxadiazol-2-yl)benzamide] | 78 ± 3% | 10 ± 1 µM | 33 ± 3% | 71 ± 18 µM |
| O=C(Nc1nnc(C2CCCCC2)o1)c1ccc(Cl)cc1 [AC10055, 4-chloro-N-(5-cyclohexyl-1,3,4-oxadiazol-2-yl)benzamide] | 71 ± 5% | 13.5 ± 2 µM | 10 ± 12% | – |
| O=C(Nc1nnc(-c2ccc3c(c2)OCCO3)o1)c1ccccc1 [AC10001, N-(5-(2,3-dihydrobenzo[b][1,4]dioxin-6-yl)-1,3,4-oxadiazol-2-yl)benzamide] | 60 ± 3% | 31 ± 3 µM | 24 ± 7% | 102 ± 26 µM |
| CSc1cccc(C(=O)Nc2nnc(-c3cccs3)o2)c1 [AC10012, 3-(methylthio)-N-(5-(thiophen-2-yl)-1,3,4-oxadiazol-2-yl)benzamide] | 84 ± 5% | 11 ± 2 µM | 34 ± 1% | 66 ± 2 µM |
| O=C(Nc1nnc(-c2ccc3c(c2)OCCO3)o1)c1cccc(C(F)(F)F)c1 [AC10023, N-(5-(2,3-dihydrobenzo[b][1,4]dioxin-6-yl)-1,3,4-oxadiazol-2-yl)-3-(trifluoromethyl)benzamide] | 100 ± 0.2% | 5.1 ± 0.7 µM | 60 ± 8% | 32 ± 12 µM |
| O=C(Nc1nnc(-c2ccc(F)cc2)o1)c1ccc(Cl)cc1 [AC10054, 4-chloro-N-(5-(4-fluorophenyl)-1,3,4-oxadiazol-2-yl)benzamide] | 76 ± 1% | 8.9 ± 1 µM | 11 ± 9% | – |
| O=C(Nc1nnc(-c2cccs2)o1)c1ccc(Br)cc1 [AC10009, 4-Bromo-N-(5-(thiophen-2-yl)-1,3,4-oxadiazol-2-yl)benzamide] | 81 ± 1% | 7.7 ± 1 µM | 41 ± 9% | 55 ± 20 µM |
| O=C(Nc1nnc(-c2ccc3c(c2)CCCC3)o1)c1cccc(C(F)(F)F)c1 [AC10026, N-(5-(5,6,7,8-tetrahydronaphthalen-2-yl)-1,3,4-oxadiazol-2-yl)-3-(trifluoromethyl)benzamide] | 100 ± 1% | 1.6 ± 0.2 µM | 82 ± 7% | 7.9 ± 3 µM |
| CSc1ccc(C(=O)Nc2nnc(-c3ccc4c(c3)OCCO4)o2)cc1 [AC10020, 4-methylthio-N-(5-(2,3-dihydrobenzo[b][1,4]dioxin-6-yl)-1,3,4-oxadiazol-2-yl)benzamide] | 88 ± 5% | 9.5 ± 1 µM | 37 ± 9% | 76 ± 39 µM |
| O=C(Nc1nnc(-c2ccc3c(c2)CCCC3)o1)c1ccc(F)cc1 [AC10056, 4-fluoro-N-(5-(5,6,7,8-tetrahydronaphthalen-2-yl)-1,3,4-oxadiazol-2-yl)benzamide] | 98 ± 1% | 5.9 ± 1 µM | 74 ± 8% | 22 ± 4 µM |
| COc1cc(C(=O)Nc2nnc(-c3ccc(F)cc3)o2)cc(C(F)(F)F)c1 [AC10068, N-(5-(4-fluorophenyl)-1,3,4-oxadiazol-2-yl)-3-methoxy-5-(trifluoromethyl)benzamide] | 97 ± 1% | 5 ± 1 µM | 80 ± 9% | 6 ± 1 µM |
| CCc1ccc(C(=O)Nc2nnc(-c3ccc(F)cc3)o2)cc1 [AC10044, 4-ethyl-N-(5-(4-fluorophenyl)-1,3,4-oxadiazol-2-yl)benzamide] | 88 ± 4% | 8.2 ± 2 µM | 32 ± 12% | 51 ± 7 µM |
| CSc1cccc(C(=O)Nc2nnc(C3CCCCC3)o2)c1 [AC10011, N-(5-cyclohexyl-1,3,4-oxadiazol-2-yl)-3-(methylthio)benzamide] | 77 ± 8% | 6.6 ± 3 µM | 43 ± 6% | 61 ± 22 µM |
| O=C(Nc1nnc(C2CCCCC2)o1)c1cccc(F)c1 [AC10047, N-(5-cyclohexyl-1,3,4-oxadiazol-2-yl)-3-fluorobenzamide] | 79 ± 8% | 10.5 ± 2 µM | 11 ± 3% | – |
| O=C(Nc1nnc(-c2ccc3c(c2)CCCC3)o1)c1ccc(Br)cc1 [AC10005, 4-bromo-N-(5-(5,6,7,8-tetrahydronaphthalen-2-yl)-1,3,4-oxadiazol-2-yl)benzamide] | 74 ± 4% | 12.2 ± 3 µM | 64 ± 13% | 27 ± 8 µM |
| Cc1ccc(C(=O)Nc2nnc(-c3ccc4c(c3)CCCC4)o2)cc1C(F)(F)F [AC10073, 4-methyl-N-(5-(5,6,7,8-tetrahydronaphthalen-2-yl)-1,3,4-oxadiazol-2-yl)-3-(trifluoromethyl)benzamide] | 64 ± 8% | 26 ± 11 µM | 65 ± 12% | 13 ± 2 µM |

From patent US20200031785A1, “METHODS FOR TREATING CHRONIC PAIN AND OPIOID DEPENDENCE USING ADENYLYL CYCLASE INHIBITORS” (Purdue Research Foundation, priority 2017, published 2020)
